The record followed here is patent publication US20080167324A1, “Thiazolymethyl and Oxazolylmethyl Heteroaryl Derivatives” (priority 2005, published 2008).

SMILES strings stand for the structures.

The target of the test is benzodiazepine site of the GABAA receptor. The experiment in a line: Ligand binding assay (3H-Ro15-1788 displacement, purified rat cortical membranes). To be noted: previously determined; used in the Cheng-Prusoff equation; read-out: Kd, binding dissociation constant of the radioligand.

One may read the Kd as the constant that tells how readily two partners part at equilibrium. `CCOC(=O)c1ncn2c1CN(C)C(=O)c1cc(F)ccc1-2` [^3H-Ro15-1788]: the Kd turned out to be 1 nM.
